These results are taken from patent US8242157B2, “Benzimidazole derivatives useful as TRPM8 channel modulators” (Janssen Pharmaceutica NV, priority 2009, dated 2012).

The target of the experiment is T1, canine TRPM8 (Canis lupus familiaris, UniProt Q1A7N1).
T1 construct: expressed in transfected cells
Kind of experiment: In Vitro Canine TRPM8 Functional Assay (icilin-induced intracellular Ca2+, FLIPR/FDSS). Format: cell-based. The following applies: for inhibition at 0.2 µM: HEK293, 0.2 μM compound, icilin activation, read-out: % Inh @ 0.2 μM. Here is the method:
The functional activity of representative compounds of the formula (I) of the present invention was quantified by measuring changes in intracellular calcium concentration using a Ca^2+-sensitive fluorescent dye. The changes in fluorescent signal were monitored by a fluorescence plate reader, either a FLIPR™ (Molecular Devices) or FDSS (Hamamatsu).
HEK293 cells stably expressing canine TRPM8 were routinely grown as monolayers in Dulbecco's minimum essential medium supplemented with 10% FBS, 2 mM L-glutamine, 100 units/mL penicillin, 100 ug/mL streptomycin and 400 μg/mL G418. Cells were maintained in 5% CO2 at 37° C. At 24 hr prior to assay, cells were seeded in black wall, clear-base poly-D-lysine coated 384-well plates (BD Biosciences, NJ, USA) at a density of 5,000 cells per well in culture medium and grown overnight in 5% CO2 at 37° C. On assay day, growth media was removed, and cells were loaded with Calcium 3 Dye (Molecular Devices) for 35 min at 37° C., under 5% CO2 and then incubated for 25 min at room temperature and atmosphere. Subsequently, cells were tested for agonist-induced increases in intracellular Ca^2+ levels using FLIPR™ or FDSS. Cells were treated with compounds of the formula (I) at varying concentrations and intracellular […] was measured for 5 min prior to the addition of icilin to all wells to achieve a final concentration that produces approximately an 80% maximal response.
Basal FI was subtracted prior to normalizing data to percent of maximal response. Curves were generated using the average of quadruplicate wells for each data point using nonlinear regression of either sigmoidal dose response or sigmoidal dose response (variable slope). Finally, the EC50 and IC50 values were calculated with the best-fit curve determined by GraphPad Prism

Setting [1] is: HEK293 cells stably expressing canine TRPM8.
The mark [2] stands for this setting: HEK293 cells stably expressing canine TRPM8, icilin at approx. 80% maximal response, eight-point concentration-response, read-out: IC50.

Each structure is given as a SMILES string. Counter-ions that a name gives are not always drawn. Like-named read-outs stand apart in the source and are kept apart here.

T1 sequence (Q1A7N1 1-1104): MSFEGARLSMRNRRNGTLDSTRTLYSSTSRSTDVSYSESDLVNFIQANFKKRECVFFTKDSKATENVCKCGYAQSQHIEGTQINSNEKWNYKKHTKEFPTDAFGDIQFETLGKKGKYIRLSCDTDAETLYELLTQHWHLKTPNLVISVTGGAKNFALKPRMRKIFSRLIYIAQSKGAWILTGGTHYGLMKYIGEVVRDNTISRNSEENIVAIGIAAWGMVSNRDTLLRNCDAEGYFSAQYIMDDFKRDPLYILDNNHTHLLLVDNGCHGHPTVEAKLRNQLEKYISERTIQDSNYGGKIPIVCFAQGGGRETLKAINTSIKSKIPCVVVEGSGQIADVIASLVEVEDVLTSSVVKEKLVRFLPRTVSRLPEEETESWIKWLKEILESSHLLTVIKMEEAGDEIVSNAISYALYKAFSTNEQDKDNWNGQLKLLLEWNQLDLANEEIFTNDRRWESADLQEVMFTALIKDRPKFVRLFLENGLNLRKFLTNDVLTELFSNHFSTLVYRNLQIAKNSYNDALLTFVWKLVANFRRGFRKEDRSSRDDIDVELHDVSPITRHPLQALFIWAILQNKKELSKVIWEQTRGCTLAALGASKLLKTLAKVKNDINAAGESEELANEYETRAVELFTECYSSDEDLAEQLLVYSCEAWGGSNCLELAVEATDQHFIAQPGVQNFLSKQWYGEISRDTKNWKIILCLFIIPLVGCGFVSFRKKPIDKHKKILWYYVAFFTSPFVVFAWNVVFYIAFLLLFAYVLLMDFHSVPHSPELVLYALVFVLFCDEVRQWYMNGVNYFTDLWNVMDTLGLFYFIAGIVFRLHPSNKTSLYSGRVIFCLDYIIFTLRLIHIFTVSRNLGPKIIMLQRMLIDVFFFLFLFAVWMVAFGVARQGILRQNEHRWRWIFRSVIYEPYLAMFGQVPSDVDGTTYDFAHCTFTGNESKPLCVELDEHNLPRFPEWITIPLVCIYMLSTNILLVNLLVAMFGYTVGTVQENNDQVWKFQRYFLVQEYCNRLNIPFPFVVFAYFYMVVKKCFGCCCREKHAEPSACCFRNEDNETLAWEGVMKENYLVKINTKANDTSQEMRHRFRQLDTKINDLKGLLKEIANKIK

For the compound `CCCCN(c1nc2ccccc2n1Cc1ccccc1)S(=O)(=O)c1ccccc1` [Compound #1, N-(1-benzyl-1H-benzimidazol-2-yl)-N-butyl-benzenesulfonamide], the inhibition at 0.2 µM under setting [1] is 19%.

For the compound `CN(c1nc2ccccc2n1C)S(=O)(=O)c1ccccc1` [Compound #3, N-methyl-N-(1-methyl-1H-benzimidazol-2-yl)-benzenesulfonamide], the inhibition at 0.2 µM under setting [1] is 9%. Besides, the inhibition at 1 µM (re-test, 1 μM, 10 mM stock diluted with 100% DMSO prior to addition to assay buffer) came out at 101%. Besides, under “re-test, 10 mM stock diluted with 100% DMSO prior to addition to assay buffer, read-out: calculated IC50”, the IC50 was 94 nM. As for `CCCCN(c1nc2ccccc2n1C)S(=O)(=O)c1ccccc1` [Compound #4, N-Butyl-N-(1-methyl-1H-benzimidazol-2-yl)-benzenesulfonamide], the inhibition at 0.2 µM under setting [1] turned out to be 92%. The 50% inhibitory concentration (IC50) under setting [2] was determined as 41 nM. `Cn1c(N(Cc2cccc(C(F)(F)F)c2)S(=O)(=O)c2ccccc2)nc2ccccc21` [Compound #12, N-(1-Methyl-1H-benzimidazol-2-yl)-N-(3-trifluoromethyl-benzyl)-benzenesulfonamide]: under setting [1], the inhibition at 0.2 µM came out at 102%. For the same compound, the IC50 under setting [2] was found to be 3 nM. `Cn1c(N(c2ccc(Cl)cc2)S(=O)(=O)c2ccccc2)nc2ccccc21` [Compound #36, N-(4-Chloro-phenyl)-N-(1-methyl-1H-benzimidazol-2-yl)-benzenesulfonamide]: under setting [1], the inhibition at 0.2 µM was 94%. Further, under setting [2], the IC50 came to 33 nM. With `O=S(=O)(c1ccccc1)N(Cc1ccc(C(F)(F)F)c(F)c1)c1nc2ccccc2n1CC(F)(F)F` [Compound #60, N-(3-Fluoro-4-trifluoromethyl-benzyl)-N-[1-(2,2,2-trifluoro-ethyl)-1H-benzimidazol-2-yl]-benzenesulfonamide], the inhibition at 0.2 µM under setting [1] worked out at 89%. The IC50 under setting [2] was 27 nM.

On to `O=S(=O)(c1ccccc1)N(Cc1ccc(C(F)(F)F)c(F)c1)c1nc2ccccc2n1CC1CC1` [Compound #71, N-(1-Cyclopropylmethyl-1H-benzimidazol-2-yl)-N-(3-fluoro-4-trifluoromethyl-benzyl)-benzenesulfonamide], for which the inhibition at 0.2 µM under setting [1] is 101%. Under setting [2], the half-inhibitory concentration (IC50) was 37 nM. As to `O=S(=O)(c1ccccc1)N(Cc1ccc(C(F)(F)F)cc1)c1nc2cccc3c2n1CCO3` [Compound #72, N-(3,4-Dihydro-5-oxa-1,2a-diaza-acenaphthylen-2-yl)-N-(4-trifluoromethyl-benzyl)-benzenesulfonamide TFA salt], the inhibition at 0.2 µM under setting [1] is 99%. Further, the 50% inhibitory concentration (IC50) under setting [2] stood at 22 nM.

For the compound `O=S(=O)(c1ccccc1)N(Cc1ccc(OC(F)(F)F)cc1)c1nc2cccc3c2n1CCO3` [Compound #73], the inhibition at 0.2 µM under setting [1] was found to be 99%. For the same compound, the half-maximal inhibitory concentration (IC50) under setting [2] was 3.4 nM. With `CCCCN(c1nc2ccccc2n1CCO)S(=O)(=O)c1ccccc1` [compound 2, N-butyl-N-[1-(2-hydroxy-ethyl)-1H-benzimidazol-2-yl]-benzenesulfonamide], under setting [1], the inhibition at 0.2 µM was 11%. Consider `Cn1c(N(Cc2ccc(F)cc2)S(=O)(=O)c2ccccc2)nc2ccccc21` [compound 8], for which the inhibition at 0.2 µM under setting [1] came to 101%. Also, the IC50 under setting [2] was 4 nM. In the case of `Cn1c(N(Cc2ccc(F)c(F)c2)S(=O)(=O)c2ccccc2)nc2ccccc21` [compound 9], under setting [1], the inhibition at 0.2 µM turned out to be 101%. Also, the IC50 under setting [2] was 2 nM. Turning to `Cn1c(N(Cc2ccccc2)S(=O)(=O)c2ccccc2)nc2ccccc21` [compound 10], the inhibition at 0.2 µM under setting [1] turned out to be 101%. In addition, under setting [2], the IC50 is 8 nM.

With `Cn1c(N(Cc2ccc(C(F)(F)F)cc2)S(=O)(=O)c2ccccc2)nc2ccccc21` [compound 11], under setting [1], the inhibition at 0.2 µM amounted to 101%. Besides, the half-maximal inhibitory concentration (IC50) under setting [2] was determined as 2 nM.

Turning to `Cn1c(N(Cc2cccc(OC(F)(F)F)c2)S(=O)(=O)c2ccccc2)nc2ccccc21` [compound 13], the inhibition at 0.2 µM under setting [1] was 101%. Besides, the IC50 under setting [2] was 3 nM. As for `Cn1c(N(Cc2ccc(F)c(C(F)(F)F)c2)S(=O)(=O)c2cccc(Cl)c2)nc2ccccc21` [compound 14], under setting [1], the inhibition at 0.2 µM was determined as 97%. For the same compound, the concentration for half-maximal inhibition (IC50) under setting [2] is 30 nM. In the same order, the values of `Cn1c(N(Cc2ccc(F)c(C(F)(F)F)c2)S(C)(=O)=O)nc2ccccc21` [compound 17] are 99% and 5 nM. Turning to `Cc1ccc(S(=O)(=O)N(Cc2ccc(F)c(C(F)(F)F)c2)c2nc3ccccc3n2C)cc1` [compound 18], the inhibition at 0.2 µM under setting [1] was determined as 106%. Under setting [2], the half-inhibitory concentration (IC50) is 14 nM. Turning to `Cn1c(N(Cc2ccc(SC(F)(F)F)cc2)S(=O)(=O)c2ccccc2)nc2ccccc21` [compound 19], under setting [1], the inhibition at 0.2 µM was 101%. In addition, the IC50 under setting [2] was found to be 1 nM. The matching figures for `Cn1c(N(Cc2ccc(C(F)(F)F)c(F)c2)S(=O)(=O)c2ccccc2)nc2ccccc21` [compound 21]: 102% and 1 nM. On to `Cn1c(N(Cc2cc(C(F)(F)F)ccc2F)S(=O)(=O)c2ccccc2)nc2ccccc21` [compound 22], for which the inhibition at 0.2 µM under setting [1] stood at 102%. Further, the IC50 under setting [2] amounted to 6 nM. As to `Cn1c(N(Cc2ccc(OC(F)F)cc2)S(=O)(=O)c2ccccc2)nc2ccccc21` [compound 23], the inhibition at 0.2 µM under setting [1] was 102%. Also, the IC50 under setting [2] turned out to be 2 nM. The matching figures for `CC(C)Cn1c(N(Cc2ccc(C(F)(F)F)cc2)S(=O)(=O)c2ccccc2)nc2ccccc21` [compound 24]: 71% and 77 nM.

Turning to `Cn1c(N(Cc2ccc(OC(F)(F)F)cc2)S(=O)(=O)c2ccc(Cl)cc2)nc2ccccc21` [compound 26], the inhibition at 0.2 µM under setting [1] came to 102%. In addition, under setting [2], the concentration for half-maximal inhibition (IC50) stood at 11 nM. In the same order, the values of `Cn1c(N(Cc2ccc(OC(F)(F)F)cc2)S(=O)(=O)c2ccc(C(F)(F)F)cc2)nc2ccccc21` [compound 27] are 101% and 49 nM. As to `Cn1c(N(Cc2ccc(C(F)(F)F)cc2)S(=O)(=O)c2ccc(F)cc2)nc2ccccc21` [compound 28], the inhibition at 0.2 µM under setting [1] came out at 95%. Further, the IC50 under setting [2] is 6 nM.

Take `CCn1c(N(Cc2ccc(OC(F)(F)F)cc2)S(=O)(=O)c2ccccc2)nc2ccccc21` [compound 29]: under setting [1], the inhibition at 0.2 µM came to 95%. The concentration for half-maximal inhibition (IC50) under setting [2] stood at 5 nM. The matching figures for `CCn1c(N(Cc2ccc(C(F)(F)F)cc2)S(=O)(=O)c2ccccc2)nc2ccccc21` [compound 30]: 96% and 4 nM. In the same order, the values of `Cn1c(N(Cc2ccc(C(F)(F)F)cc2)S(=O)(=O)c2ccc(C(F)(F)F)cc2)nc2ccccc21` [compound 31] are 96% and 33 nM.

Take `Cn1c(N(Cc2ccc(OC(F)(F)F)cc2)S(=O)(=O)c2ccc(F)cc2)nc2ccccc21` [compound 32]: the inhibition at 0.2 µM under setting [1] was determined as 94%. The 50% inhibitory concentration (IC50) under setting [2] stood at 6 nM. In the case of `CCn1c(N(Cc2ccc(C(F)(F)F)c(F)c2)S(=O)(=O)c2ccccc2)nc2ccccc21` [compound 34], the inhibition at 0.2 µM under setting [1] came to 102%. The IC50 under setting [2] stood at 7 nM. As to `Cn1c(N(Cc2ccc(C(F)(F)F)c(F)c2)S(=O)(=O)c2ccc(F)cc2)nc2ccccc21` [compound 38], under setting [1], the inhibition at 0.2 µM amounted to 102%. Moreover, the IC50 under setting [2] was 11 nM. The matching figures for `Cn1c(N(Cc2ccc(C(F)(F)F)c(F)c2)S(=O)(=O)c2ccc(Cl)cc2)nc2ccccc21` [compound 39]: 102% and 10 nM. As for `Cn1c(N(Cc2ccc(C(F)(F)F)c(F)c2)S(=O)(=O)c2ccc(C(F)(F)F)cc2)nc2ccccc21` [compound 40], under setting [1], the inhibition at 0.2 µM was 101%. In addition, the IC50 under setting [2] was determined as 60 nM.

In general, IC50 refers to the concentration that inhibits the measured activity by half.
